We go through 10 molecules from patent US8895602B1, “6-pyrazolylamido-3-substituted azabicyclo[3.1.0]hexane compounds as calcium channel inhibitors” (Korea Institute of Science and Technology, priority 2013, dated 2014).

For orientation: inhibition means the relative decrease from the control value, in per cent.

The test system of test [1] is human fibroblastoma (HT-1080) cells. As to the kind of experiment: Anticancer screening, SRB assay, HT-1080. It counts as cell-based. Conditions: HT1080, 48 hours incubation, concentration not given. The method, then:
(§1) Anticancer Effect Screening Test
(§2) All the cancer cells are human-derived tumor cells and were acquired from the Korean Cell Line Bank.
(§3) 2) Measurement of Anticancer Activity
(§4) After incubation in a CO2 incubator for 24 hours, the culture medium was removed and 100 μL of the test compound which was diluted 4-fold was added. After incubation for 48 hours, the cells were fixed by adding 100 μL of formalin solution. Then, the cells were washed 5 times with distilled water and dried at room temperature. After adding 100 μL of 0.4% SRB solution and keeping at room temperature for 30 minutes, the cells were washed 5 times with 1% acetic acid and dried at room temperature.
(§5) To evaluate the anticancer activity of the test compound against the cancer cells, the GI50 value was calculated according to Equation 1 or 2. Anticancer activity (%)=[…] Equation 1
(§6) In Equation 1, T0 represents the number of cells before adding the test compound and T2 represents the number of cells after adding the test compound and incubating for 48 hours. Anticancer activity (%)=[…] Equation 2
(§7) The inhibition of cancer cell growth by the test compound (% inhibition) was determined by data regression using the Lotus program from the values calculated according to Equation 1 and the IC50 value was calculated from the % inhibition.
(The SRB assay estimates cell density from bound dye.)

Test [2] concerns human liver carcinoma (HepG2) cells. As to the kind of experiment: Anticancer screening, SRB assay, HepG2. Format: cell-based. The note with it: HepG2, 48 hours incubation, concentration not given. On the procedure:
as §1, §2, §3, §4, §5, §6, §7

Test [3] relates to human esophageal carcinoma (KYSE410) cells. As to the kind of experiment: Anticancer screening, SRB assay, KYSE410. It counts as cell-based. The note with it: KYSE410, 48 hours incubation, concentration not given. On the procedure:
as §1, §2, §3, §4, §5, §6, §7

The subject of test [4] is human breast cancer (MCF-7) cells. As to the kind of experiment: Anticancer screening, SRB assay, MCF-7. It counts as cell-based. The note with it: MCF-7, 48 hours incubation, concentration not given. On the procedure:
as §1, §2, §3, §4, §5, §6, §7

The subject of test [5] is human glioma (U87-MG) cells. As to the kind of experiment: Anticancer screening, SRB assay, U87-MG. It counts as cell-based. The note with it: 48 hours incubation, concentration not given. The method, then: as §1, §2, §3, §4, §5, §6, §7
For test [6], the system named is human lung carcinoma (A-549) cells. As to the kind of experiment: Anticancer screening, SRB assay, A-549. Format: cell-based. Conditions: A 549, 48 hours incubation, concentration not given. On the procedure: as §1, §2, §3, §4, §5, §6, §7
For test [7], the system named is human prostate carcinoma (LNCaP) cells. As to the kind of experiment: Anticancer screening, SRB assay, LNCaP. The note with it: 48 hours incubation, concentration not given. Format: cell-based. The method, then: as §1, §2, §3, §4, §5, §6, §7
Test [8] has as its target α1H T-type calcium channel (Homo sapiens, UniProt O95180). As to the kind of experiment: Antagonistic activity against T-type calcium channel, α1H. It counts as cell-based.
Protocol: (§8) Test of Antagonistic Activity Against T-Type Calcium Channel
2) Measurement of T-Type Calcium Channel Activity in HEK293 Cells by Whole-Cell Patch Clamp Electrophysiology
The culture medium was replaced with a fresh one every 3-4 days and the cells were subcultured every week. […] The T-type calcium channel current at single cell level was measured by whole-cell patch clamp electrophysiology using an EPC-9 amplifier (HEKA, Germany). For the T-type calcium channel activity measurement, an extracellular solution (140 mM NaCl, 2 mM CaCl2, 10 mM HEPES, pH 7.4) and an intracellular solution (130 mM KCl, 10 mM HEPES, 11 mM EGTA, 5 mM MgATP, pH 7.4) were used. […] Thereafter, the cell membrane potential was fixed to −100 mV and the inward current evoked by the T-type calcium channel activity was measured every 10 seconds at hypopolarization with −30 mV (50 ms duration). Each compound was dissolved in 100% dimethyl sulfoxide (DMSO) to make a 10 mM stock solution. […] More specifically, the cells were treated with each compound together with the extracellular solution for 30-60 seconds and the % inhibition was determined by calculating the inhibition of peak current induced by the compound.
The target in test [9] is T1, α1G T-type calcium channel (Homo sapiens, UniProt O43497).
T1 construct: host or cells: HEK293
T1 sequence (O43497 whole entry): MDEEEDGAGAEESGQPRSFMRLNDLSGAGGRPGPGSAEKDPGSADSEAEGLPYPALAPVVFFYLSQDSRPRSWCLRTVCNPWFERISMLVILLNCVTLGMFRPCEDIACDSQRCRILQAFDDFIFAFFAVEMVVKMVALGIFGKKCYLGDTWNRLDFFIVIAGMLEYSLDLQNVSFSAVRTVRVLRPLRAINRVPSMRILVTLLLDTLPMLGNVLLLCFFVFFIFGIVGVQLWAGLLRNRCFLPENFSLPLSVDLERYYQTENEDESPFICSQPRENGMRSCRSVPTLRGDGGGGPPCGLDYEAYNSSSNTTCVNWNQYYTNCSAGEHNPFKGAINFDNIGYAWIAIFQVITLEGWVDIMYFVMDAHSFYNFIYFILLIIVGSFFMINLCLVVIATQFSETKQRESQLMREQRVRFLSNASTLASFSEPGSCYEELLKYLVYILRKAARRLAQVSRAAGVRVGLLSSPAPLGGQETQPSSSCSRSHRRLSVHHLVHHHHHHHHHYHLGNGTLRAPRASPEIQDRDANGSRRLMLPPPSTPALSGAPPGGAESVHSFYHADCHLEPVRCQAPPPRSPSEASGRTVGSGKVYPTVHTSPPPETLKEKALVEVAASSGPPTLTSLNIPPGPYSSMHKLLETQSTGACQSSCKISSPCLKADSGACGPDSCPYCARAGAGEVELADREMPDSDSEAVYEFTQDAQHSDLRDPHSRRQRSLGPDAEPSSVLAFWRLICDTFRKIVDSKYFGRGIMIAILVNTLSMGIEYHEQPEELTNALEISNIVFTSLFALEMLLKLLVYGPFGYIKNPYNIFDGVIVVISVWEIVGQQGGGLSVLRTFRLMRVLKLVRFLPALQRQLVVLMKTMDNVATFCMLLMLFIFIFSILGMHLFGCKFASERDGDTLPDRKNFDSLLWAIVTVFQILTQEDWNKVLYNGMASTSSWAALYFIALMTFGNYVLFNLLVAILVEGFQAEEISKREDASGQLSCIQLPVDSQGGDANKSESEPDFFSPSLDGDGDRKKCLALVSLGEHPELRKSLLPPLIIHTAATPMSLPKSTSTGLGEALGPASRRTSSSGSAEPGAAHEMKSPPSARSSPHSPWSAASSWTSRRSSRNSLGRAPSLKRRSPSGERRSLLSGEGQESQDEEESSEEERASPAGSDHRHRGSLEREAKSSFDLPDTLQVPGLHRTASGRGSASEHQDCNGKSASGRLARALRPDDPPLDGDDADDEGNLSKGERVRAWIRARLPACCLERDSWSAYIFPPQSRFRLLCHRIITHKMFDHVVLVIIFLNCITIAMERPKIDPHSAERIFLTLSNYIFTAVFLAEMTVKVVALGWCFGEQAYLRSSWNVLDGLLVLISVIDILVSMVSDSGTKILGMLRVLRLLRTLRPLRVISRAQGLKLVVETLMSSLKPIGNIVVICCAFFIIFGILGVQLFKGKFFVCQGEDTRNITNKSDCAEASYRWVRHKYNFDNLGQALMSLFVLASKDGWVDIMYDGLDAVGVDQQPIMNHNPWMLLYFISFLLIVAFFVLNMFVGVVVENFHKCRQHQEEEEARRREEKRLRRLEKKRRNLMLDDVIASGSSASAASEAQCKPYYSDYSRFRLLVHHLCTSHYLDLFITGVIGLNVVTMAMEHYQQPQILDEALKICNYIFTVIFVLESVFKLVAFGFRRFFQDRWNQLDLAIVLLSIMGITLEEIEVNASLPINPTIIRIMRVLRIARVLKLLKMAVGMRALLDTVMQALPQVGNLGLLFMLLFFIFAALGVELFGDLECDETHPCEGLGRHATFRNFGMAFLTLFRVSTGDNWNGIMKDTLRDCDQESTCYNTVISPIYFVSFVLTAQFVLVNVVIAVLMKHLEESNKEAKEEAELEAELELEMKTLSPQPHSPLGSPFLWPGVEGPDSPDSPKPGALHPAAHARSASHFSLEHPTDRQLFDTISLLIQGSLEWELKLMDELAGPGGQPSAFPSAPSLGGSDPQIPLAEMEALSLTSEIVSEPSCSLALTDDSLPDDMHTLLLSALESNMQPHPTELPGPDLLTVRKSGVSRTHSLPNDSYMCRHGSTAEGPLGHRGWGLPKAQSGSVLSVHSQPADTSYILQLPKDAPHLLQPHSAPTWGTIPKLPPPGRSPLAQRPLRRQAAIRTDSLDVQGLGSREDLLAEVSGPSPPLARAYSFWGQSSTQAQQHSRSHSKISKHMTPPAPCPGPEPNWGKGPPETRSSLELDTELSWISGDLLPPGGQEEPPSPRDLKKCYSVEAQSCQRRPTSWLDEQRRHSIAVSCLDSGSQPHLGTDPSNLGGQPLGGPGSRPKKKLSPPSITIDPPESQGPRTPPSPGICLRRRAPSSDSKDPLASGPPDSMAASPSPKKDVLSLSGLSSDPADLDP
As to the kind of experiment: Antagonistic activity against T-type calcium channel (FDSS6000 / whole-cell patch clamp in HEK293 cells), α1G. It counts as cell-based.
Protocol: as §8
Then, as secondary screening, the effective inhibitory concentration IC50 for human HEK293 cells was obtained by measuring the potential of Ca^2+.
1) Measurement of T-Type Calcium Channel Activity Using FDSS6000
Subsequently, 10 minutes prior to the FDSS6000 measurement, the cells were washed with HEPES buffer containing 10 mM CaCl2 once and the final volume was adjusted to 81 μL. Separately from the 96-well plate with the cells, two 96-well drug plates were prepared, one containing KCl (final concentration 75 mM) for activating the T-type calcium channel and the other containing the blocking agent (test compound). […] For the FDSS6000 measurement, after baseline recording for 20 seconds, the cells were pretreated with the test compound for 75 seconds and the change in intracellular calcium concentration induced by KCl was measured. The % inhibition by the test compound was calculated as integrated values of the 340/380 ratio relative to the untreated control group. […]
For calcium imaging, the cells were selectively exposed to light of excitation wavelengths (340 nm and 380 nm) with four xenon lamps installed in the FDSS6000 device using a computer-controlled filter wheel. The emitted fluorescence light that passed through a 515 nm long-pass filter was passed through a freezing CCD camera mounted in the device. […]

The conditions of test [10]: spinal nerve ligation model; cited from earlier work.

Sequence of α1H T-type calcium channel (O95180 whole entry): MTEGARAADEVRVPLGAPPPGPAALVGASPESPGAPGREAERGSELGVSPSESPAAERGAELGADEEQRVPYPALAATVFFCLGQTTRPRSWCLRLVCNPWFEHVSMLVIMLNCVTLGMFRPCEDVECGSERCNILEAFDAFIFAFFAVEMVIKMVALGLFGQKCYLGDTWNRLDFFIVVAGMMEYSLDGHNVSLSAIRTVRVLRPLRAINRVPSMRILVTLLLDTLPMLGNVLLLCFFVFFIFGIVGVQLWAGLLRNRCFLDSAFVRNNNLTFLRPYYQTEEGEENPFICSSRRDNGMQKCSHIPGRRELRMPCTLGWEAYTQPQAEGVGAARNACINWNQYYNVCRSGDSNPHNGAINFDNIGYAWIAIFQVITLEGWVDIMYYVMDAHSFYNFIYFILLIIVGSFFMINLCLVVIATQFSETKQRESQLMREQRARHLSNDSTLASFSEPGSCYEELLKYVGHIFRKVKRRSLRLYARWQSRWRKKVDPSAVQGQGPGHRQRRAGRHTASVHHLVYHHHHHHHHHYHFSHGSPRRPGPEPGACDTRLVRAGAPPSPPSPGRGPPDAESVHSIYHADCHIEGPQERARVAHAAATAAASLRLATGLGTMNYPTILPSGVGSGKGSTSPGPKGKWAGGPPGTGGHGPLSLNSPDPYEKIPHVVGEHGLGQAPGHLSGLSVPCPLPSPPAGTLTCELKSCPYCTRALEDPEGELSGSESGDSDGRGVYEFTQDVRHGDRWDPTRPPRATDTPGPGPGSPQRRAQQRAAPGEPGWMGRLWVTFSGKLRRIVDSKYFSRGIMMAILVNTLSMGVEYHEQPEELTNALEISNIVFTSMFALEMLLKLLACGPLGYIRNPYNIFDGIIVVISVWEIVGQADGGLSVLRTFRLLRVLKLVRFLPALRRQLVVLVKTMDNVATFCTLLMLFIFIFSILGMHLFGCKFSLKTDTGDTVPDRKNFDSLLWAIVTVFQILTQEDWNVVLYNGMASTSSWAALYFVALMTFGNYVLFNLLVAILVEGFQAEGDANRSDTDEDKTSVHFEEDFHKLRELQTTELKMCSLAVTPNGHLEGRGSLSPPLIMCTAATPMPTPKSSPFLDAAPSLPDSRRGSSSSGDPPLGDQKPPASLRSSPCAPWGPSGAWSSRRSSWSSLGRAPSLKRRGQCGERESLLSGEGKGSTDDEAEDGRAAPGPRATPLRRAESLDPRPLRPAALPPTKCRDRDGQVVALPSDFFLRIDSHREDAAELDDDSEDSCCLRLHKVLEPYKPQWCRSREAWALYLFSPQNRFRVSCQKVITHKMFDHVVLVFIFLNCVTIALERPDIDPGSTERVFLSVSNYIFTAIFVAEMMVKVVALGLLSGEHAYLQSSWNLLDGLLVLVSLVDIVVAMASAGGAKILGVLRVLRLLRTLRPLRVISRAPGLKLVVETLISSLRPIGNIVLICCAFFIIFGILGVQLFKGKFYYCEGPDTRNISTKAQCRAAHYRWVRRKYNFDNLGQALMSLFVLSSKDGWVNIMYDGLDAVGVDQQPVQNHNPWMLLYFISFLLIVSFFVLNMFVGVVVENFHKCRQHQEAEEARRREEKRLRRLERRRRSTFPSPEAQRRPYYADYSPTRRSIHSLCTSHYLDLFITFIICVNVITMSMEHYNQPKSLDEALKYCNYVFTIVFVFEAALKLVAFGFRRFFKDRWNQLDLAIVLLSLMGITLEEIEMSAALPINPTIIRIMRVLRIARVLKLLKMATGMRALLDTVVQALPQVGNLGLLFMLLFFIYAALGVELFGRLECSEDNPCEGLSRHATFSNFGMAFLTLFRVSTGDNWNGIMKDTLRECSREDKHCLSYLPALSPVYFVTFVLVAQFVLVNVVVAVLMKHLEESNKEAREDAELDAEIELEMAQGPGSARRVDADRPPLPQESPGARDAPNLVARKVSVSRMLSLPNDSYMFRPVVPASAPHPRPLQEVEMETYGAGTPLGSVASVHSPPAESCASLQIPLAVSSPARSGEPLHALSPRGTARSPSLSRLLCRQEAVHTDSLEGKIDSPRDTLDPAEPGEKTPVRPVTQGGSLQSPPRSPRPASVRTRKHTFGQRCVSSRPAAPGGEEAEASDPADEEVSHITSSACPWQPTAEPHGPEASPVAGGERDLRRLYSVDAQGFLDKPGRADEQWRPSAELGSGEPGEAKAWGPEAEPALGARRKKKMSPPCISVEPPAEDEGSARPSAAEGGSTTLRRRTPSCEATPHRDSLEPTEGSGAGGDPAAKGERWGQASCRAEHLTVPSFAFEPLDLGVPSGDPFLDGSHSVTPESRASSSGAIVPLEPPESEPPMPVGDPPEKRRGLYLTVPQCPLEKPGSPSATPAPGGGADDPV

In the case of `Cc1ccc(NC(=O)c2ccc(CN3CCN(C)CC3)cc2)cc1Nc1nccc(-c2cccnc2)n1` [Gleevec, reference compound], the “% inhibition for cancer cells HT1080” value in [1] was 92.04%. The “% inhibition for cancer cells HepG2” value in test [2] came to 90.81%. Further, the “% inhibition for cancer cells KYSE410” value in test [3] came to 75.92%. Besides, in test [4], the “% inhibition for cancer cells MCF-7” value is given as 95.19%. The “% inhibition for cancer cells U87-MG” value in [5] is on record as 86.51%. The “% inhibition for cancer cells A 549” value in test [6] turned out to be 94.17%. The “% inhibition for cancer cells LNCaP” value in test [7] was determined as 82.56%.
Consider `C#Cc1cccc(Nc2ncnc3cc(OCCOC)c(OCCOC)cc23)c1` [Tarceva, reference compound], for which, in test [1], the “% inhibition for cancer cells HT1080” value stood at 83.07%. The “% inhibition for cancer cells KYSE410” value in [3] turned out to be 36.30%. Moreover, the “% inhibition for cancer cells U87-MG” value in [5] came to 55.96%. In test [7], the “% inhibition for cancer cells LNCaP” value was 47.12%.
Consider `CC(C)Cc1cc(CNC(=O)C2C3CN(CCc4ccc(C(F)(F)F)cc4)CC32)nn1-c1ccccc1` (centres unmarked) [Compound 3, 5-Isobutyl-1-phenyl-3-{3-[4-(trifluoromethyl)phenylethyl]-3-azabicyclo[3.1.0]hexane-6-carboxamido}methyl-1H-pyrazole], for which the “% inhibition for cancer cells HT1080” value in test [1] is on record as 87.64%. Moreover, the “% inhibition for cancer cells HepG2” value in [2] turned out to be 67.82%. Further, in test [3], the “% inhibition for cancer cells KYSE410” value was 92.33%. Besides, the “% inhibition for cancer cells MCF-7” value in test [4] was 85.44%. Further, the inhibition at 10 µM in test [8] was found to be 64.6%; in test [9], 60.5%. The “% inhibition for cancer cells U87-MG” value in [5] was found to be 89.21%. Also, the “% inhibition for cancer cells A 549” value in test [6] amounted to 75.64%. Also, the “% inhibition for cancer cells LNCaP” value in test [7] worked out at 92.29%.
`CC(C)Cc1cc(CNC(=O)C2C3CN(C(=O)Cc4ccccc4)CC32)nn1-c1ccccc1` (centres unmarked) [Compound 5, 5-Isobutyl-1-phenyl-3-[3-(2-phenylacetyl)-3-azabicyclo[3.1.0]hexane-6-carboxamido]methyl-1H-pyrazole]: in test [1], the “% inhibition for cancer cells HT1080” value was found to be 67.10%. The “% inhibition for cancer cells HepG2” value in test [2] stood at 89.16%. For the same molecule, the “% inhibition for cancer cells KYSE410” value in test [3] was found to be 48.62%. The “% inhibition for cancer cells MCF-7” value in test [4] is 95.24%. In addition, the inhibition at 10 µM in test [8] came out at 89.9%; in test [9], 81%. Besides, in test [5], the “% inhibition for cancer cells U87-MG” value stood at 45.39%. Also, the “% inhibition for cancer cells A 549” value in test [6] came to 94.61%. Also, in test [7], the “% inhibition for cancer cells LNCaP” value came out at 62.24%.
On to `CC(C)Cc1cc(CNC(=O)C2C3CN(CCC(C)(C)C)CC32)nn1-c1ccccc1` (centres unmarked) [Compound 1, 3-[3-(3,3-Dimethylbutyl)-3-azabicyclo[3.1.0]hexane-6-carboxamido]methyl-5-isobutyl-1-phenyl-1H-pyrazole], for which the “% inhibition for cancer cells HT1080” value in test [1] was found to be 62.86%. Moreover, the “% inhibition for cancer cells HepG2” value in test [2] came out at 87.91%. For the same molecule, the “% inhibition for cancer cells KYSE410” value in test [3] worked out at 62.50%. Further, the “% inhibition for cancer cells MCF-7” value in test [4] turned out to be 94.86%. Moreover, the “% inhibition for cancer cells U87-MG” value in [5] is listed as 48.10%. Also, in test [6], the “% inhibition for cancer cells A 549” value turned out to be 94.52%. Also, in [7], the “% inhibition for cancer cells LNCaP” value is on record as 34.74%.
For the molecule `CC(C)Cc1cc(CNC(=O)C2C3CN(Cc4ccccc4)CC32)nn1-c1ccccc1` (centres unmarked) [Compound 2, 3-(3-Benzyl-3-azabicyclo[3.1.0]hexane-6-carboxamido)methyl-5-isobutyl-1-phenyl-1H-pyrazole], the “% inhibition for cancer cells HT1080” value in test [1] was found to be 87.79%. In test [3], the “% inhibition for cancer cells KYSE410” value amounted to 88.75%. For the same molecule, the “% inhibition for cancer cells U87-MG” value in [5] came to 86.45%. In addition, in test [7], the “% inhibition for cancer cells LNCaP” value was found to be 84.90%.
For `CC(C)Cc1cc(C(=O)NCC2C3CN(CCC(C)(C)C)CC23)nn1-c1ccccc1` (centres unmarked) [Compound 7, 3-{2-[3-(3,3-Dimethylbutyl)-3-azabicyclo[3.1.0]hexane-6-yl]methyl}carbamoyl-5-isobutyl-1-phenyl-1H-pyrazole], the “% inhibition for cancer cells HT1080” value in test [1] was 88.79%. Further, the “% inhibition for cancer cells HepG2” value in test [2] is listed as 98.18%. Moreover, the “% inhibition for cancer cells KYSE410” value in test [3] was 86.46%. In addition, the “% inhibition for cancer cells MCF-7” value in test [4] was found to be 94.67%. Also, the “% inhibition for cancer cells U87-MG” value in test [5] was 89.43%. Besides, in test [6], the “% inhibition for cancer cells A 549” value was found to be 93.14%. Further, the “% inhibition for cancer cells LNCaP” value in test [7] worked out at 49.98%.
Turning to `COCC(=O)O[C@]1(CCN(C)CCCc2nc3ccccc3[nH]2)CCc2cc(F)ccc2[C@@H]1C(C)C` [mibefradil], the “effect on mechanically and thermally induced pain” value in [10] is “inhibit mechanically and thermally induced pain in a dose-dependent manner”.
`CCC1(C)CC(=O)NC1=O` (centres unmarked) [ethosuximide]: the “effect on mechanically and thermally induced pain” value in test [10] is “inhibit mechanically and thermally induced pain in a dose-dependent manner”.
For the molecule `CC(C)Cc1cc(CNC(=O)C2C3CN(C(=O)c4ccccc4)CC32)nn1-c1ccccc1` (centres unmarked) [Compound 4, 3-(3-Benzoyl-3-azabicyclo[3.1.0]hexane-6-carboxamido)methyl-5-isobutyl-1-phenyl-1H-pyrazole], in [1], the “% inhibition for cancer cells HT1080” value is given as 75.39%. Besides, the “% inhibition for cancer cells HepG2” value in [2] was 89.44%. The “% inhibition for cancer cells KYSE410” value in test [3] was found to be 56.84%. Further, in test [4], the “% inhibition for cancer cells MCF-7” value was 95.00%. Besides, in test [5], the “% inhibition for cancer cells U87-MG” value is 56.49%. For the same molecule, the “% inhibition for cancer cells A 549” value in [6] is recorded as 94.52%. Besides, the “% inhibition for cancer cells LNCaP” value in test [7] turned out to be 73.31%.
